Bounds are passed on as bounds.

Series [1] concerns Hep 3B2. Nature of the series: Antiproliferative activity against human Hep3B cells assessed as reduction in cell viability incubated for 48 hrs by MTT assay. It is filed as functional, cell-based. (Tetrazolium dyes change colour on reduction, which living cells bring about.)
The nature of series [2]: Solubility of the compound in water incubated for 24 hrs under stirring conditions by HPLC analysis. The class given is physicochemical.
Series [3] has as its system SMMC-7721. Nature of the series: Antiproliferative activity against human SMMC-7721 cells assessed as reduction in cell viability incubated for 48 hrs by MTT assay. The class given is functional, cell-based.
Series [4] deals with HepG2. Nature of the series: Antiproliferative activity against human HepG2 cells assessed as reduction in cell viability incubated for 48 hrs by MTT assay. It is filed as functional, cell-based. The settings on record: HepG2, 48 h.
Setting [5] is: Homo sapiens, SMMC-7721, 48 h, read-out: IC50.

On to `COc1ccc(-c2oc3c(CC=C(C)C)c(O)cc(O)c3c(=O)c2O)cc1` [ICARITIN], for which the IC50 is 0.9 µM in series [1], > 10 µM in series [3] (setting [5]) and > 10 µM in series [4]. For the same compound, the solubility at 24 h in series [2] was < 10 µg/mL.
For the compound `CCN(CC)CCCOc1cc(O)c2c(=O)c(O[C@H]3O[C@H](C)[C@@H](O)[C@H](O)[C@@H]3O)c(-c3ccc(OC)cc3)oc2c1CC=C(C)C`, the values for the IC50 in series [1], in series [3] (setting [5]) and in series [4] were > 10 µM, > 10 µM and 5.5 µM, respectively.
Regarding `COc1ccc(-c2oc3c(CC=C(C)C)c(OC[C@H](O)CN4CCCC4)cc(O)c3c(=O)c2O[C@H]2O[C@H](C)[C@@H](O)[C@H](O)[C@@H]2O)cc1`, the IC50 in series [1], in series [3] (setting [5]) and in series [4] was > 10 µM in each case.
On to `CNC(=O)c1cc(Oc2ccc(NC(=O)Nc3ccc(Cl)c(C(F)(F)F)c3)cc2)ccn1` [SORAFENIB], for which the IC50 in series [1] is 7.7 µM; in series [3] (setting [5]), 8.8 µM; in series [4], 5.5 µM.
Take `CCN(CC)CCOCCOCCOc1cc(O)c2c(=O)c(O[C@H]3O[C@H](C)[C@@H](O)[C@H](O)[C@@H]3O)c(-c3ccc(OC)cc3)oc2c1CC=C(C)C`: the IC50 in series [1], in series [3] (setting [5]) and in series [4] was > 10 µM in each case.
Take `COc1ccc(-c2oc3c(CC=C(C)C)c(OCCCN4CCC(C)CC4)cc(O)c3c(=O)c2O[C@H]2O[C@H](C)[C@@H](O)[C@H](O)[C@@H]2O)cc1`: the IC50 in series [1] is > 10 µM; in series [3] (smmc-7721) it was “Not Active”; in series [4] it was > 10 µM.
As to `COc1ccc(-c2oc3c(CC=C(C)C)c(OCCOCCN4CCOCC4)cc(O)c3c(=O)c2O[C@H]2O[C@H](C)[C@@H](O)[C@H](O)[C@@H]2O)cc1`, the IC50 in series [1] was > 10 µM; in series [3] (smmc-7721) it was “Not Active”; in series [4], > 10 µM.
With `COc1ccc(-c2oc3c(CC=C(C)C)c(OC[C@H](O)CN(C)C)cc(O)c3c(=O)c2O[C@H]2O[C@H](C)[C@@H](O)[C@H](O)[C@@H]2O)cc1`, the IC50 in series [1], in series [3] (setting [5]) and in series [4] was > 10 µM each time.
Consider `CCN(CC)CCOc1cc(O)c2c(=O)c(O[C@H]3O[C@H](C)[C@@H](O)[C@H](O)[C@@H]3O)c(-c3ccc(OC)cc3)oc2c1CC=C(C)C`, for which the IC50 in series [1] is > 10 µM; in series [3] (smmc-7721), “Not Active”; in series [4] it was > 10 µM.
Take `COc1ccc(-c2oc3c(CC=C(C)C)c(OCCCN4CCC(O)CC4)cc(O)c3c(=O)c2O[C@H]2O[C@H](C)[C@@H](O)[C@H](O)[C@@H]2O)cc1`: the IC50 in series [1] is 8.6 µM; in series [3] (smmc-7721) it was “Not Active”; in series [4], > 10 µM.
Regarding `COc1ccc(-c2oc3c(CC=C(C)C)c(OCCN(C)C)cc(O)c3c(=O)c2O[C@H]2O[C@H](C)[C@@H](O)[C@H](O)[C@@H]2O)cc1`, the IC50 in series [1] is > 10 µM; in series [3] (smmc-7721), “Not Active”; in series [4], 9.2 µM.
As to `COc1ccc(-c2oc3c(CC=C(C)C)c(OCCOCCOCCN4CCCC4)cc(O)c3c(=O)c2O[C@H]2O[C@H](C)[C@@H](O)[C@H](O)[C@@H]2O)cc1`, the IC50 in series [1], in series [3] (setting [5]) and in series [4] was > 10 µM in each case.
For `COc1ccc(-c2oc3c(CC=C(C)C)c(OCCCCN4CCC(C)CC4)cc(O)c3c(=O)c2O[C@H]2O[C@H](C)[C@@H](O)[C@H](O)[C@@H]2O)cc1`, the IC50 in series [1] is > 10 µM; in series [3] (smmc-7721) it was “Not Active”; in series [4] it was > 10 µM.
For `COc1ccc(-c2oc3c(CC=C(C)C)c(OCCCN4CCNCC4)cc(O)c3c(=O)c2O[C@H]2O[C@H](C)[C@@H](O)[C@H](O)[C@@H]2O)cc1`, the IC50 in series [1] was 3.8 µM; in series [3] (smmc-7721), “Not Active”; in series [4] it was > 10 µM.
As for `COc1ccc(-c2oc3c(CC=C(C)C)c(OCCCCCCN4CCCC4)cc(O)c3c(=O)c2O[C@H]2O[C@H](C)[C@@H](O)[C@H](O)[C@@H]2O)cc1`, the figures for the IC50 in series [1], in series [3] (setting [5]) and in series [4] were 7.6 µM, 4.8 µM and 2.5 µM, respectively.
The like results for `COc1ccc(-c2oc3c(CC=C(C)C)c(OCCCCC(=O)NO)cc(O)c3c(=O)c2O[C@H]2O[C@H](C)[C@@H](O)[C@H](O)[C@@H]2O)cc1` were, in that order, > 10 µM, > 10 µM and > 10 µM.
For `COc1ccc(-c2oc3c(CC=C(C)C)c(OCCCN4CCCC4)cc(O)c3c(=O)c2O[C@H]2O[C@H](C)[C@@H](O)[C@H](O)[C@@H]2O)cc1` the same measures were 7.6 µM, 6.1 µM and 6.3 µM.
For `COc1ccc(-c2oc3c(CC=C(C)C)c(OCCN4CCOCC4)cc(O)c3c(=O)c2O[C@H]2O[C@H](C)[C@@H](O)[C@H](O)[C@@H]2O)cc1`, the IC50 was 6.1 µM in series [1], “Not Active” in series [3] (smmc-7721) and > 10 µM in series [4].
For the compound `COc1ccc(-c2oc3c(CC=C(C)C)c(OCCCCCC(=O)NO)cc(O)c3c(=O)c2O[C@H]2O[C@H](C)[C@@H](O)[C@H](O)[C@@H]2O)cc1`, the IC50 in series [1], in series [3] (setting [5]) and in series [4] was > 10 µM throughout.
For the compound `COc1ccc(-c2oc3c(CC=C(C)C)c(OCCCCN4CCOCC4)cc(O)c3c(=O)c2O[C@H]2O[C@H](C)[C@@H](O)[C@H](O)[C@@H]2O)cc1`, the IC50 in series [1] was > 10 µM; in series [3] (smmc-7721) it was “Not Active”; in series [4] it was > 10 µM.

A word on the IC50: it is the concentration that gives 50% inhibition. Usually solubility stands for the concentration that dissolves in the medium under given conditions. Low readings indicate little dissolved substance, high ones much dissolved substance.
